Values after ≈ are worked out from the molar mass of the structure shown.
Experiments:
JAK1 = JAK1 (Homo sapiens (Human), UniProt P23458); experiment: Biochemical JAK and Tyk2 Kinase Assays (LanthaScreen), JAK1; conditions: 25 μM ATP (Km), pIC50 converted to pKi by Cheng-Prusoff; for Ki: read-out: JAK 1 (pKi) (converted)
JAK2 = JAK2 (Homo sapiens (Human), UniProt O60674); experiment: Biochemical JAK and Tyk2 Kinase Assays (LanthaScreen), JAK2; conditions: 3 μM ATP (Km); pIC50 converted to pKi by Cheng-Prusoff
JAK2, sequence (O60674 whole entry): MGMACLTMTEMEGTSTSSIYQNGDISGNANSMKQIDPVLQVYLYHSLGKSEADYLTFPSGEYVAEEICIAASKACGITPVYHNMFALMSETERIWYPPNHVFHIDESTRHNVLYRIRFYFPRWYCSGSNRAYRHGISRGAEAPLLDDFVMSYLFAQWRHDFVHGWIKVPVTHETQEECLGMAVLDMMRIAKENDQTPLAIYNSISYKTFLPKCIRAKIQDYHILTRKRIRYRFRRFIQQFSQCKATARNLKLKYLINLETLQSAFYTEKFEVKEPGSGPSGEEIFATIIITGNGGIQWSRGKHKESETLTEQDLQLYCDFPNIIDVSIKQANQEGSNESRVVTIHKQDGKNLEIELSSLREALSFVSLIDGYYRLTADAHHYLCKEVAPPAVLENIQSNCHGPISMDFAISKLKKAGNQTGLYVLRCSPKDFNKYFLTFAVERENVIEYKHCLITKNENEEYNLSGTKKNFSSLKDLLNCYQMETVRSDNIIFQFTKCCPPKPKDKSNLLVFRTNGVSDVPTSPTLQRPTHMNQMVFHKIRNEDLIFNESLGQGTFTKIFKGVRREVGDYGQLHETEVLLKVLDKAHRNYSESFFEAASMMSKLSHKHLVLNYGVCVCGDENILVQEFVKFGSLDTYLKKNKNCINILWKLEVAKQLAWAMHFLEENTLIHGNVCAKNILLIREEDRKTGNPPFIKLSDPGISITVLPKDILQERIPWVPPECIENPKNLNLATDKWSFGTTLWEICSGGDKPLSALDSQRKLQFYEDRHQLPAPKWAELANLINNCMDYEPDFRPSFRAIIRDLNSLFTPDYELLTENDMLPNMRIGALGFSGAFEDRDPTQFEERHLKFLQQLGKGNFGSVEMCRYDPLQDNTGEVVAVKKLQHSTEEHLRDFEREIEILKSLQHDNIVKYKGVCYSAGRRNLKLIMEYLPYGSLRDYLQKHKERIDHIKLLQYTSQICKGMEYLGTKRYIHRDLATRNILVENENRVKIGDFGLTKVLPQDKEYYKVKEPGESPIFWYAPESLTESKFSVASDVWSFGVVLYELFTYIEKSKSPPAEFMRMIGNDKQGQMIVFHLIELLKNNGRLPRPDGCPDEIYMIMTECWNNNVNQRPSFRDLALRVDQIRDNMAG
Procedure: (§1) Assay 1: Biochemical JAK and Tyk2 Kinase Assays
(§2) A panel of four LanthaScreen JAK biochemical assays (JAK1, 2, 3 and Tyk2) were carried in a common kinase reaction buffer (50 mM HEPES, pH 7.5, 0.01% Brij-35, 10 mM MgCl2, and 1 mM EGTA). Recombinant GST-tagged JAK enzymes and a GFP-tagged STAT1 peptide substrate were obtained from Life Technologies.
(§3) Serially or discretely diluted compounds were pre-incubated with each of the four JAK enzymes and the substrate in white 384-well microplates (Corning) at ambient temperature for 1 h. ATP was subsequently added to initiate the kinase reactions in 10 μL total volume, with 1% DMSO. The final enzyme concentrations for JAK1, 2, 3 and Tyk2 are 4.2 nM, 0.1 nM, 1 nM, and 0.25 nM respectively; the corresponding Km ATP concentrations used are 25 μM, 3 μM, 1.6 μM, and 10 μM; while the substrate concentration is 200 nM for all four assays. Kinase reactions were allowed to proceed for 1 hour at ambient temperature before a 10 μL preparation of EDTA (10 mM final concentration) and Tb-anti-pSTAT1 (pTyr701) antibody (Life Technologies, 2 nM final concentration) in TR-FRET dilution buffer (Life Technologies) was added. The plates were allowed to incubate at ambient temperature for 1 h before being read on the EnVision reader (Perkin Elmer). Emission ratio signals (520 nm/495 nm) were recorded and utilized to calculate the percent inhibition values based on DMSO and background controls.
(§4) For dose-response analysis, percent inhibition data were plotted vs. compound concentrations, and IC50 values were determined from a 4-parameter robust fit model with the Prism software (GraphPad Software). Results were expressed as pIC50 (negative logarithm of IC50) and subsequently converted to pKi (negative logarithm of dissociation constant, Ki) using the Cheng-Prusoff equation.

JAK3 = JAK3 (Homo sapiens (Human), UniProt P52333); experiment: Biochemical JAK and Tyk2 Kinase Assays (LanthaScreen), JAK3; conditions: 1.6 μM ATP (Km), pIC50 converted to pKi by Cheng-Prusoff; for Ki: read-out: JAK 3 (pKi) (converted)
JAK3, sequence (P52333 whole entry): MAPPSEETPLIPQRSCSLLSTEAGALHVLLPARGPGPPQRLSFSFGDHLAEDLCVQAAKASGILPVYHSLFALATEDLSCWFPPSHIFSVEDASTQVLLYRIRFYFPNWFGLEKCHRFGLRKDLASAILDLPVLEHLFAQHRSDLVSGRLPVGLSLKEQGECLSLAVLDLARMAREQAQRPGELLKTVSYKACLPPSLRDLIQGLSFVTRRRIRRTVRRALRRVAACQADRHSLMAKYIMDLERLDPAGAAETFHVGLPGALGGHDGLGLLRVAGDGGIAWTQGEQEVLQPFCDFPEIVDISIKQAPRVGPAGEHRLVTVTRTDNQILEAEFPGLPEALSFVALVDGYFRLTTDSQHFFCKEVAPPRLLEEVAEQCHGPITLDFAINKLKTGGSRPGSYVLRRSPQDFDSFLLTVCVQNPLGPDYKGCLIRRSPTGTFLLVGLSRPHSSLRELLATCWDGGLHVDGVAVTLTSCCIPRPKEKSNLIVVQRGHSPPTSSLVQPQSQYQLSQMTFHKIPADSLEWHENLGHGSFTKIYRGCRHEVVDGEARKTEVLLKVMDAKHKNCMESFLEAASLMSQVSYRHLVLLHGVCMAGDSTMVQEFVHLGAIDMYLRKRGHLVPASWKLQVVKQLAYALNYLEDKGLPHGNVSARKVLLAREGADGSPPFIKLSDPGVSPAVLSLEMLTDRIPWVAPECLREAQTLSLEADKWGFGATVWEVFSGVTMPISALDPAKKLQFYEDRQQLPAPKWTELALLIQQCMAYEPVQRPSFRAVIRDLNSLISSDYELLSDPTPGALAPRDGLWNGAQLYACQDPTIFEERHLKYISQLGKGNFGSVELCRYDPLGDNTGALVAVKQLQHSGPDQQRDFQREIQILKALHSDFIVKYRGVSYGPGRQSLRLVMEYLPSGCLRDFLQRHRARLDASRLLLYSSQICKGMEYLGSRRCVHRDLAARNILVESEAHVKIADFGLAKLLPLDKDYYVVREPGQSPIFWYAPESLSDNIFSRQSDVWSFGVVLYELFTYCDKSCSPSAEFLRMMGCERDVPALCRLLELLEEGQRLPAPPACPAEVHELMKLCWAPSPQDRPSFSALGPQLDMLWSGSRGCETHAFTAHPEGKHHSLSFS

Tyk2 = Tyk2 (Homo sapiens (Human), UniProt P29597); experiment: Biochemical JAK and Tyk2 Kinase Assays (LanthaScreen), Tyk2; conditions: 10 μM ATP (Km), pIC50 converted to pKi by Cheng-Prusoff; for Ki: read-out: Tyk 2 (pKi) (converted)
Tyk2, sequence (P29597 whole entry): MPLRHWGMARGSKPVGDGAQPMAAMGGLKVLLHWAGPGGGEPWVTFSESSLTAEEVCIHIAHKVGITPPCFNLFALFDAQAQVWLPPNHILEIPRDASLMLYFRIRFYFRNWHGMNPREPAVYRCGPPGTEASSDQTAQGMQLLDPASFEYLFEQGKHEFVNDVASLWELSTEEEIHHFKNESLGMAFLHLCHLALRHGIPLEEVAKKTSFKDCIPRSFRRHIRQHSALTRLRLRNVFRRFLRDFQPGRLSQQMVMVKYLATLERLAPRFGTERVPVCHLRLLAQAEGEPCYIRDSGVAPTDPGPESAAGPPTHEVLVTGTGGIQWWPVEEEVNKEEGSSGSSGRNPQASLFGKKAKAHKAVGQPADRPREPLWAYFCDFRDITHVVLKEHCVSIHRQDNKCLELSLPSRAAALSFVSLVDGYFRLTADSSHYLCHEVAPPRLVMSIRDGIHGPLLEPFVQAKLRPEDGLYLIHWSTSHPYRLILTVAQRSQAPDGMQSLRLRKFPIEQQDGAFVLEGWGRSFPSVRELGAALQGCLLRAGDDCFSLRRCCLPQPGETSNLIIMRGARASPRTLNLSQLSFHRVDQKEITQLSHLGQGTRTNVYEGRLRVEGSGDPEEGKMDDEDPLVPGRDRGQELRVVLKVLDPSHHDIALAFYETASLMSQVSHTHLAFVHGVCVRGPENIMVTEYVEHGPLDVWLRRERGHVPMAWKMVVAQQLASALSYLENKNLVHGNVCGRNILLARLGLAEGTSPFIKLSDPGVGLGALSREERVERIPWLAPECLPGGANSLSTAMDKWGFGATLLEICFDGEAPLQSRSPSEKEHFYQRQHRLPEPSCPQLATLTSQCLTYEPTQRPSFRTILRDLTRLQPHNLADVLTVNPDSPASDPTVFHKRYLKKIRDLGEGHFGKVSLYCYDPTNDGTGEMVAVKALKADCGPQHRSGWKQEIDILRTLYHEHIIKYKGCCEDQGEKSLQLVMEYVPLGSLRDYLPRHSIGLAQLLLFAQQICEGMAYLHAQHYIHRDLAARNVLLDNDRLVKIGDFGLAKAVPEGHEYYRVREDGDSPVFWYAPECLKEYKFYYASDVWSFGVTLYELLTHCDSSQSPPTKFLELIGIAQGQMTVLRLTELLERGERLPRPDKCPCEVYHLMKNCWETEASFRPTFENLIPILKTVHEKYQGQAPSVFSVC
Procedure: as §1, §2, §3, §4

[1] = test system: IL-2 stimulated pSTAT5 in Tall-1 T cells; experiment: Inhibition of IL-2 Stimulated pSTAT5 in Tall-1 T Cells; type: cell-based; conditions: Tall-1 human T cell line, IL-2 300 ng/mL, AlphaLisa; for IC50: read-out: Tall-1 IL2 pSTAT5 (pIC50) (converted)
Summary of the method: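 Cells preincubated with compound 1 hour at 37° C, then stimulated with IL-2 (final 300 ng/mL) for 30 minutes. After lysis, pSTAT5 (Tyr694/699) read by AlphaLISA luminescence. IC50 from inhibition curves, reported as pIC50 (mean±SD).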

Caco-2 cell monolayer = experiment: Caco-2 Permeation Assay; type: in vitro ADME; conditions: Papp, 5 μM compound; for Cacoverap Kp 10^−6 cm/sec: A→B in the presence of 25 μM verapamil (P-gp inhibitor); for Caco Kp 10^−6 cm/sec: apical to basal (A→B)
Summary of the method: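 Compound at 5 μM, in duplicate, crosses Caco-2 monolayers apical to basal over 120 min at 37 °C. This is run with and without 25 μM verapamil to test for P-gp efflux. Samples are quantified by LC-MS/MS, and Papp in cm/sec is calculated as dQ/(dt × area × concentration).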

physchem = conditions: thermodynamic from solid
Procedure: (§5) Assay 6: Solubility Assay in Organic Excipients
(§6) The purpose of this assay was to quantify the solubility of test compounds in different organic excipients such as diisopropyl adipate, medium chain triglycerides (MCT), propylene glycol, and polyethylene glycol. The assay required 80 μL of 100 mM DMSO test compound solution per desired excipient in addition to 40 μL required to make a test standard.
(§7) The standard was created by diluting 40 μL of 100 mM DMSO compound stock solution into 160 μL of methanol and was shaken for five minutes to ensure solution uniformity. […] This 20,000 μM solution was run on an Agilent 1260 LC-MS system by injecting 0.2 μL in order to obtain the peak area. For the test solutions, 80 μL of 100 mM DMSO compound stock solution, per excipient, were dried down into a powder overnight. Once in powder form, 400 μL of the desired excipient was added to the powder and allowed to shake vigorously for four hours. The maximum theoretical concentration for this sample solution was 20,000 μM. After four hours of shaking, the samples were centrifuged for 10 minutes at 3,000 RPM before injecting 0.2 μL on the same Agilent 1260 LC-MS system to obtain the peak area.

Aqueous Solubility Assay = conditions: PBS buffer pH 7.4; maximum upper limit 1,000 μM
Procedure: Assay 5: Aqueous Solubility Assay
The purpose of this assay was to quantify the solubility of test compounds in pH 4 and pH 7.4 PBS buffers. The assay required 40 μL of 10 mM DMSO test compound solution per desired buffer in addition to 20 μL required to make a test standard. For example, to test a compound in both buffers, 100 μL (2*40 μL+20 μL) of 10 mM DMSO compound stock solution was required.
The standard was created by diluting 20 μL of 10 mM DMSO compound stock solution into 180 μL of methanol and was shaken for five minutes to ensure solution uniformity. […] This 1,000 μM solution was run on an Agilent 1260 LC-MS system by injecting 2 μL in order to obtain the peak area. For the test solutions, 40 μL of 10 mM DMSO compound stock solution, per PBS buffer condition, were dried down into a powder overnight. Once in powder form, 400 μL of the desired PBS buffer was added to the powder and allowed to shake vigorously for four hours. The maximum theoretical concentration for this sample solution was 1,000 μM. After four hours of shaking, the samples were centrifuged for 10 minutes at 3,000 RPM before injecting 2 μL on the same Agilent 1260 LC-MS system to obtain the peak area.
In Table 6 below, A represents a value above 500, B represents a value between 250 and 500, C represents a value between 50 and 250, D represents a value between 10 and 50, and E represents a value below 10.

[2] = Solubility Assay in Organic Excipients; conditions: maximum upper limit 20,000 μM; for Solubility in MCT (mg/mL): medium chain triglycerides (MCT)
Procedure: as §5, §6, §7

[3] = oil or lipid, Solubility in MCT (mg/mL)
[4] = organic solvent or mixture, Solubility in Diisopropyl adipate (mg/mL)
[5] = organic solvent or mixture, Solubility in PEG400 (mg/mL)
[6] = organic solvent or mixture, Solubility in Propylene glycol (mg/mL)

JAK1, sequence (P23458 whole entry): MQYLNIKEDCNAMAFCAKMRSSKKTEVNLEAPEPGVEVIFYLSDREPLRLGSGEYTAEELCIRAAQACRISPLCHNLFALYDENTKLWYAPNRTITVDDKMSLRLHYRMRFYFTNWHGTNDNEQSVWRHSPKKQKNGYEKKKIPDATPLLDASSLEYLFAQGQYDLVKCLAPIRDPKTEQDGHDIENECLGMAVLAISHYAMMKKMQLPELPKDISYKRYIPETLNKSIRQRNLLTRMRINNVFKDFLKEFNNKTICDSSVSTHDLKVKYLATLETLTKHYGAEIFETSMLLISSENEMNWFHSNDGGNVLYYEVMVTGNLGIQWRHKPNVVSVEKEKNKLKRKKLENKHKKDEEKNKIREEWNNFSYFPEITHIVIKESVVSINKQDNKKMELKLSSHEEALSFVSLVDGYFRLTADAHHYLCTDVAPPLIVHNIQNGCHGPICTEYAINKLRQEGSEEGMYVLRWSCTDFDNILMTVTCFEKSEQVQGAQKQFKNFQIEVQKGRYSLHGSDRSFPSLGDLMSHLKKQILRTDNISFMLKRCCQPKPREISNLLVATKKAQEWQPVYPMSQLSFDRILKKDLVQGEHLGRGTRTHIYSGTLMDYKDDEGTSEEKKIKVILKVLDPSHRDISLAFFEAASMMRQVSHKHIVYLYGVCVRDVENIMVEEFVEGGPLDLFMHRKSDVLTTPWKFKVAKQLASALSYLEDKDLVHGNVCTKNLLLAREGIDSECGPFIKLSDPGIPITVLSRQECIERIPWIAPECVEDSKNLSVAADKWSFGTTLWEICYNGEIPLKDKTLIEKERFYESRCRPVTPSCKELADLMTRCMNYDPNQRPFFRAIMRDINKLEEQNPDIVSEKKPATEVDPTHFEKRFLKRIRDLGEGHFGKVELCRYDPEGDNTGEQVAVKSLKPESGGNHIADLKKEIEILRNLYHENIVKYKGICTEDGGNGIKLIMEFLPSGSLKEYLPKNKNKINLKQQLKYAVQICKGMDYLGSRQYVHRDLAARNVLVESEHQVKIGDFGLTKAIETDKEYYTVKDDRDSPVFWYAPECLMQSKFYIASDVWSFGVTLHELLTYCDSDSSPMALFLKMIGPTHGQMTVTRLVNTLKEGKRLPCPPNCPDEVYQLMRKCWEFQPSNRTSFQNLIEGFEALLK

Row | Compound | JAK 1 (pKi) (JAK1) | JAK 2 (pKi) (JAK2) | Ki (JAK3) [nM] | Ki (Tyk2) [nM] | IC50 [1] [nM] | Cacoverap Kp 10^−6 cm/sec (Caco-2 cell monolayer) | Caco Kp 10^−6 cm/sec (Caco-2 cell monolayer) | solubility at 4 h (physchem; [3]) [µg/mL] | solubility at 4 h (physchem; [4]) [µg/mL] | solubility at 4 h (physchem; [5]) [µg/mL] | solubility at 4 h (physchem; [6]) [µg/mL] | Ki (JAK1) [nM] | JAK 3 (pKi) (JAK3) | Tyk 2 (pKi) (Tyk2) | Tall-1 IL2 pSTAT5 (pIC50) [1] | Solubility at PH 7.4 (μmol) (Aqueous Solubility Assay) | Solubility in PEG400 (mg/mL) [2] | Solubility in Diisopropyl adipate (mg/mL) [2] | Solubility in MCT (mg/mL) [2] | Solubility in Propylene glycol (mg/mL) [2]
1 | COCCOC(=O)N1[C@@H]2CCC[C@H]1C[C@H](N(C)c1nc(Nc3cc(C)[nH]n3)cc(O[C@@H]3CCOC3)n1)C2 [Compound 22] | A (A represents a pKi value ≥10 (Ki≤0.1 nM)) | A (A represents a pKi value ≥10 (Ki≤0.1 nM)) | 0.1 to 1 | 0.1 to 1 | 10 to 31.6 | B (B represents a value between 20×10^−6 and 35×10^−6 cm/sec) | B (B represents a value between 15×10^−6 and 30×10^−6 cm/sec) | < 5000 | > 10000 | > 10000 | > 10000 |  |  |  |  |  |  |  |  | 
2 | Cc1cc(Nc2cc(O[C@H]3CCOC3)nc(N(C)[C@@H]3C[C@H]4CCC[C@@H](C3)N4CC(=O)N3CCCC3)n2)n[nH]1 [Compound 31] |  | A (A represents a pKi value ≥10 (Ki≤0.1 nM)) | 0.1 to 1 | 0.1 to 1 | ≤ 10 | C (C represents a value between 12×10^−6 and 20×10^−6 cm/sec) | C (C represents a value below 15×10^−6 cm/sec) | < 5000 | < 5000 | < 5000 | < 5000 | 0.1 to 1 |  |  |  |  |  |  |  | 
3 | COCCOC(=O)N1[C@@H]2CCC[C@H]1C[C@H](N(C)c1nc(Nc3cc(C)[nH]n3)cc(C3CCCO3)n1)C2 (stereo partly drawn) [Compound 13, 2-methoxyethyl (1R,3s,5S)-3-(methyl(4-((5-methyl-1H-pyrazol-3-yl)amino)-6-(tetrahydrofuran-2-yl)pyrimidin-2-yl)amino)-9-azabicyclo[3.3.1]nonane-9-carboxylate] | A (A represents a pKi value ≥10 (Ki≤0.1 nM)) | A (A represents a pKi value ≥10 (Ki≤0.1 nM)) |  |  |  |  |  |  |  |  |  |  | C (C represents a pKi value between 8 and 9 (Ki between 10 nM and 1 nM)) | B (B represents a pKi value between 9 and 10 (Ki between 1 nM and 0.1 nM)) | B (B represents a pIC50 value between 7.5 (included) and 8.0) | C (C represents a value between 50 and 250) | A (A represents a value above 10) | A (A represents a value above 10) | B (B represents a value between 5 and 10) | A (A represents a value above 10)
4 | Cc1cc(Nc2cc(C3CCCO3)nc(N(C)[C@@H]3C[C@H]4CCC[C@@H](C3)N4C(=O)OC3CCOCC3)n2)n[nH]1 (stereo partly drawn) [Compound 14, tetrahydro-2H-pyran-4-yl (1R,3s,5S)-3-(methyl(4-((5-methyl-1H-pyrazol-3-yl)amino)-6-(tetrahydrofuran-2-yl)pyrimidin-2-yl)amino)-9-azabicyclo[3.3.1]nonane-9-carboxylate] | A (A represents a pKi value ≥10 (Ki≤0.1 nM)) | A (A represents a pKi value ≥10 (Ki≤0.1 nM)) |  |  |  | B (B represents a value between 20×10^−6 and 35×10^−6 cm/sec) | B (B represents a value between 15×10^−6 and 30×10^−6 cm/sec) |  |  |  |  |  | C (C represents a pKi value between 8 and 9 (Ki between 10 nM and 1 nM)) | B (B represents a pKi value between 9 and 10 (Ki between 1 nM and 0.1 nM)) | B (B represents a pIC50 value between 7.5 (included) and 8.0) | D (D represents a value between 10 and 50) | A (A represents a value above 10) | A (A represents a value above 10) | B (B represents a value between 5 and 10) | A (A represents a value above 10)
5 | COCCC(=O)N1[C@@H]2CCC[C@H]1C[C@H](N(C)c1nc(Nc3cc(C)[nH]n3)cc(O[C@@H]3CCOC3)n1)C2 [Compound 25] |  | A (A represents a pKi value ≥10 (Ki≤0.1 nM)) | 0.1 to 1 | 0.1 to 1 | ≤ 10 |  |  | < 5000 | > 10000 | > 10000 | > 10000 | 0.1 to 1 |  |  |  |  |  |  |  | 
6 | Cc1cc(Nc2cc(OC3COC3)nc(N(C)[C@@H]3C[C@H]4CCC[C@@H](C3)N4C(=O)CC3CC3)n2)n[nH]1 [Compound 35] | A (A represents a pKi value ≥10 (Ki≤0.1 nM)) | A (A represents a pKi value ≥10 (Ki≤0.1 nM)) | 0.1 to 1 |  | ≤ 10 |  |  | < 5000 | 5000 to 10000 (≈ 10.4 to 20.8 mM) | 5000 to 10000 (≈ 10.4 to 20.8 mM) | 5000 to 10000 (≈ 10.4 to 20.8 mM) |  |  | A (A represents a pKi value ≥10 (Ki≤0.1 nM)) |  |  |  |  |  | 
7 | Cc1cc(Nc2cc(O[C@@H]3CCOC3)nc(N(C)[C@@H]3C[C@H]4CCC[C@@H](C3)N4C(=O)OC3CCOCC3)n2)n[nH]1 [Compound 21] | A (A represents a pKi value ≥10 (Ki≤0.1 nM)) | A (A represents a pKi value ≥10 (Ki≤0.1 nM)) | 0.1 to 1 | 0.1 to 1 | 10 to 31.6 | B (B represents a value between 20×10^−6 and 35×10^−6 cm/sec) | B (B represents a value between 15×10^−6 and 30×10^−6 cm/sec) | 5000 to 10000 (≈ 9.23 to 18.5 mM) | > 10000 | > 10000 | > 10000 |  |  |  |  |  |  |  |  | 
8 | CCNC(=O)CN1[C@@H]2CCC[C@H]1C[C@H](N(C)c1nc(Nc3cc(C)[nH]n3)cc(O[C@H]3CCOC3)n1)C2 [Compound 32] | A (A represents a pKi value ≥10 (Ki≤0.1 nM)) | A (A represents a pKi value ≥10 (Ki≤0.1 nM)) | 0.1 to 1 | 0.1 to 1 |  |  |  | < 5000 | > 10000 | > 10000 | > 10000 |  |  |  |  |  |  |  |  | 
